Data as given in patent US11578073B2, “Xanthine analogs as potent anti-West Nile viral agents” (Southern Research Institute, priority 2019, dated 2023).

Key:
West Nile virus = assay: anti-West Nile virus activity of xanthine analogs in HEK293 cells; format: cell-based; settings: HEK293, read-out: EC90 (effective concentration to inhibit 90% of virus)
[1] = cell viability assay (cytotoxicity) in HEK293 cells; format: cell-based; settings: human, read-out: CC50 (50% cytotoxicity concentration)

| SMILES | EC90 (West Nile virus) [µM] | CC50 [1] [µM] |
| --- | --- | --- |
| Cc1ccc(C)c(CN2CCN(c3nc4c(c(=O)[nH]c(=O)n4C)n3Cc3ccccc3C(F)(F)F)CC2)c1 [Compound 12, 8-(4-(2,5-Dimethylbenzyl)piperazin-1-yl)-3-methyl-7-(2-(trifluoromethyl)benzyl)-3,7-dihydro-1H-purine-2,6-dione] | 1.1 | 12 |
| Cc1ccc(C)c(CN2CCN(c3nc4c(c(=O)[nH]c(=O)n4C)n3Cc3cccc(F)c3)CC2)c1 [Compound 13, 8-(4-(2,5-Dimethylbenzyl)piperazin-1-yl)-7-(3-fluorobenzyl)-3-methyl-3,7-dihydro-1H-purine-2,6-dione] | 5.7 | > 30 |
| Cc1ccc(C)c(CN2CCN(c3nc4c(c(=O)[nH]c(=O)n4C)n3Cc3ccc(F)cc3)CC2)c1 [Compound 14, 8-(4-(2,5-Dimethylbenzyl)piperazin-1-yl)-7-(4-fluorobenzyl)-3-methyl-3,7-dihydro-1H-purine-2,6-dione] | 6.1 | > 30 |
| Cc1ccc(C)c(CN2CCN(c3nc4c(c(=O)[nH]c(=O)n4C)n3Cc3ccc(F)cc3F)CC2)c1 [Compound 15, 7-(2,4-Difluorobenzyl)-8-(4-(2,5-dimethylbenzyl)piperazin-1-yl)-3-methyl-3,7-dihydro-1H-purine-2,6-dione] | > 10 | > 40 |
| Cn1c(=O)[nH]c(=O)c2c1nc(N1CCN(Cc3ccc(C(C)(C)C)cc3)CC1)n2Cc1ccccc1C(F)(F)F [Compound 16, 8-(4-(4-(tert-Butyl)benzyl)piperazin-1-yl)-3-methyl-7-(2-(trifluoromethyl)benzyl)-3,7-dihydro-1H-purine-2,6-dione] | 1.2 | 12.4 |
| Cn1c(=O)[nH]c(=O)c2c1nc(N1CCN(Cc3ccc(C(C)(C)C)cc3)CC1)n2Cc1ccccc1OC(F)(F)F [Compound 17, 8-(4-(4-(tert-Butyl)benzyl)piperazin-1-yl)-3-methyl-7-(2-(trifluoromethoxy)benzyl)-3,7-dihydro-1H-purine-2,6-dione] | 1.2 | 10.2 |
| COC(=O)c1ccc(Cn2c(N3CCN(Cc4ccc(C(C)(C)C)cc4)CC3)nc3c2c(=O)[nH]c(=O)n3C)c(F)c1 [Compound 18, methyl 4-((8-(4-(4-(tert-butyl)benzyl)piperazin-1-yl)-3-methyl-2,6-dioxo-1,2,3,6-tetrahydro-7H-purin-7-yl)methyl)-3-fluorobenzoate] | 5.2 | 21.4 |
| Cn1c(=O)[nH]c(=O)c2c1nc(N1CCN(Cc3ccc(C(C)(C)C)cc3)CC1)n2Cc1ccc(C(=O)O)cc1F [Compound 19, 4-((8-(4-(4-(tert-butyl)benzyl)piperazin-1-yl)-3-methyl-2,6-dioxo-1,2,3,6-tetrahydro-7H-purin-7-yl)methyl)-3-fluorobenzoic Acid] | > 10 | > 40 |
| Cn1c(=O)[nH]c(=O)c2c1nc(N1CCN(Cc3ccc(C(C)(C)C)cc3)CC1)n2Cc1ccncc1F [Compound 20, 8-(4-(4-(tert-Butyl)benzyl)piperazin-1-yl)-7-((3-fluoropyridin-4-yl)methyl)-3-methyl-3,7-dihydro-1H-purine-2,6-dione] | 2.6 | 22.1 |
| Cn1c(=O)[nH]c(=O)c2c1nc(N1CCOCC1)n2Cc1ccccc1F [Compound 22, 7-(2-Fluorobenzyl)-3-methyl-8-morpholino-3,7-dihydro-1H-purine-2,6-dione] | > 10 | > 40 |
| Cc1ccc(C)c(N2CCN(c3nc4c(c(=O)[nH]c(=O)n4C)n3Cc3ccccc3F)CC2)c1 [Compound 26, 8-(4-(2,5-Dimethylphenyl)piperazin-1-yl)-7-(2-fluorobenzyl)-3-methyl-3,7-dihydro-1H-purine-2,6-dione] | 4.5 | 2.8 |
| Cc1cc(C)cc(N2CCN(c3nc4c(c(=O)[nH]c(=O)n4C)n3Cc3ccccc3F)CC2)c1 [Compound 27, 8-(4-(3,5-Dimethylphenyl)piperazin-1-yl)-7-(2-fluorobenzyl)-3-methyl-3,7-dihydro-1H-purine-2,6-dione] | 10 | > 30 |
| Cn1c(=O)[nH]c(=O)c2c1nc(N1CCN(c3cccc(C(C)(C)C)c3)CC1)n2Cc1ccccc1F [Compound 28, 8-(4-(3-(tert-butyl)phenyl)piperazin-1-yl)-7-(2-fluorobenzyl)-3-methyl-3,7-dihydro-1H-purine-2,6-dione] | 10 | > 40 |
| Cn1c(=O)[nH]c(=O)c2c1nc(N1CCN(c3ccc(C(F)(F)F)cc3)CC1)n2Cc1ccccc1F [Compound 30, 7-(2-Fluorobenzyl)-3-methyl-8-(4-(4-(trifluoromethyl)phenyl)piperazin-1-yl)-3,7-dihydro-1H-purine-2,6-dione] | 6.5 | 12.9 |
| Cn1c(=O)[nH]c(=O)c2c1nc(N1CCN(Cc3ccc(C(F)(F)F)cc3)CC1)n2Cc1ccccc1F [Compound 34, 7-(2-Fluorobenzyl)-3-methyl-8-(4-(4-(trifluoromethyl)benzyl)piperazin-1-yl)-3,7-dihydro-1H-purine-2,6-dione] | 9.4 | > 30 |
| Cn1c(=O)[nH]c(=O)c2c1nc(N1CCN(Cc3ccc(F)cc3)CC1)n2Cc1ccccc1F [Compound 35, 7-(2-Fluorobenzyl)-8-(4-(4-fluorobenzyl)piperazin-1-yl)-3-methyl-3,7-dihydro-1H-purine-2,6-dione] | 10.5 | > 30 |
| Cn1c(=O)[nH]c(=O)c2c1nc(N1CCN(Cc3ccc(C(C)(C)C)cc3)CC1)n2Cc1ccccc1F [Compound 36, 8-(4-(4-(tert-butyl)benzyl)piperazin-1-yl)-7-(2-fluorobenzyl)-3-methyl-3,7-dihydro-1H-purine-2,6-dione] | 0.87 | > 30 |
| Cn1c(=O)[nH]c(=O)c2c1nc(N1CCN(Cc3ccc(C(C)(C)C)cc3)C(C(=O)O)C1)n2Cc1ccccc1F (stereo not drawn) [Compound 37, 1-(4-(tert-butyl)benzyl)-4-(7-(2-fluorobenzyl)-3-methyl-2,6-dioxo-2,3,6,7-tetrahydro-1H-purin-8-yl)piperazine-2-carboxylic Acid] | > 10 | > 40 |
| Cn1c(=O)[nH]c(=O)c2c1nc(N1CCN(Cc3ccc(C(C)(C)C)nc3)CC1)n2Cc1ccccc1F [Compound 38, 8-(4-((6-(tert-Butyl)pyridin-3-yl)methyl)piperazin-1-yl)-7-(2-fluorobenzyl)-3-methyl-3,7-dihydro-1H-purine-2,6-dione] | 16 | 34.2 |
| Cn1c(=O)[nH]c(=O)c2c1nc(N1CCN(Cc3ccc(C(C)(C)C#N)cc3)CC1)n2Cc1ccccc1F [Compound 39, 2-(4-((4-(7-(2-Fluorobenzyl)-3-methyl-2,6-dioxo-2,3,6,7-tetrahydro-1H-purin-8-yl)piperazin-1-yl)methyl)phenyl)-2-methylpropanenitrile] | > 30 | > 40 |
| Cn1c(=O)[nH]c(=O)c2c1nc(N1CCN(Cc3ccc(C(C)(C)O)cc3)CC1)n2Cc1ccccc1F [Compound 40, 7-(2-fluorobenzyl)-8-(4-(4-(2-hydroxypropan-2-yl)benzyl)piperazin-1-yl)-3-methyl-3,7-dihydro-1H-purine-2,6-dione] | > 10 | > 40 |
| CC(C)c1ccc(CN2CCN(c3nc4c(c(=O)[nH]c(=O)n4C)n3Cc3ccccc3F)CC2)cc1 [Compound 41, 7-(2-Fluorobenzyl)-8-(4-(4-isopropylbenzyl)piperazin-1-yl)-3-methyl-3,7-dihydro-1H-purine-2,6-dione] | 1.1 | 24 |
| C=C(C)c1ccc(CN2CCN(c3nc4c(c(=O)[nH]c(=O)n4C)n3Cc3ccccc3F)CC2)cc1 [Compound 42, 7-(2-Fluorobenzyl)-3-methyl-8-(4-(4-(prop-1-en-2-yl)benzyl)piperazin-1-yl)-3,7-dihydro-1H-purine-2,6-dione] | 2.1 | 22 |
| Cc1ccc(C)c(C(=O)N2CCN(c3nc4c(c(=O)[nH]c(=O)n4C)n3Cc3ccccc3F)CC2)c1 [Compound 43, 8-(4-(2,5-Dimethylbenzoyl)piperazin-1-yl)-7-(2-fluorobenzyl)-3-methyl-3,7-dihydro-1H-purine-2,6-dione] | > 10 | > 40 |
| Cn1c(=O)[nH]c(=O)c2c1nc(N1CCN(C(=O)c3ccc(C(C)(C)C)cc3)CC1)n2Cc1ccccc1F [Compound 44, 8-(4-(4-(tert-Butyl)benzoyl)piperazin-1-yl)-7-(2-fluorobenzyl)-3-methyl-3,7-dihydro-1H-purine-2,6-dione] | 8.8 | > 30 |
| Cn1c(=O)[nH]c(=O)c2c1nc(N1CCN(C(=O)Cc3ccc(C(C)(C)C)cc3)CC1)n2Cc1ccccc1F [Compound 50, 8-(4-(2-(4-(tert-Butyl)phenyl)acetyl)piperazin-1-yl)-7-(2-fluorobenzyl)-3-methyl-3,7-dihydro-1H-purine-2,6-dione] | 3.7 | > 30 |
| Cn1c(=O)[nH]c(=O)c2c1nc(N1CCC(C)(C)CC1)n2Cc1ccccc1F [Compound 52, 8-(4,4-Dimethylpiperidin-1-yl)-7-(2-fluorobenzyl)-3-methyl-3,7-dihydro-1H-purine-2,6-dione] | 3.9 | > 30 |
| Cn1c(=O)[nH]c(=O)c2c1nc(N1CCC(c3ccccc3)CC1)n2Cc1ccccc1F [Compound 56, 7-(2-Fluorobenzyl)-3-methyl-8-(4-phenylpiperidin-1-yl)-3,7-dihydro-1H-purine-2,6-dione] | 2.4 | 10.7 |
| Cn1c(=O)[nH]c(=O)c2c1nc(N1CCC(c3cccc(F)c3)CC1)n2Cc1ccccc1F [Compound 57, 7-(2-Fluorobenzyl)-8-(4-(3-fluorophenyl)piperidin-1-yl)-3-methyl-3,7-dihydro-1H-purine-2,6-dione] | 4.4 | > 30 |
| CC(C)(C)c1ccc(CN2CCN(c3nc4[nH]c(=O)[nH]c(=O)c4n3Cc3ccccc3F)CC2)cc1 [Compound 64, 8-(4-(4-(tert-butyl)benzyl)piperazin-1-yl)-7-(2-fluorobenzyl)-3,7-dihydro-1H-purine-2,6-dione] | 9 | 10 |
